In ChEMBL document CHEMBL1201862, “PubChem BioAssay data set” (2004):
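How tested: cells in 96-well plates exposed to compound for 48 hours at five concentrations. Here, GI50 denotes the concentration required for 50% inhibition of growth.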 Activity calls are given as the source filed them. No stated cut-off is given here; in the data, active = GI50 up to about 1.1 µM and inactive = higher.

What was measured:
Experiment in all cases: inhibition of tumour cell growth, NCI panel, 48 h
OVCAR-5 = test system: OVCAR-5
Malme-3M = test system: Malme-3M
SN12C = test system: SN12C
T47D = test system: T47D
SF-268 = test system: SF-268
MDA-MB-231 = test system: MDA-MB-231
RPMI-8226 = test system: RPMI-8226
EKVX = test system: EKVX
NCI-H23 = test system: NCI-H23
NCI/ADR-RES = test system: NCI/ADR-RES
SNB-78 = test system: SNB-78
MOLT-4 = test system: MOLT-4
RXF 393 = test system: RXF 393
MCF7 = test system: MCF7
HT-29 = test system: HT-29
OVCAR-3 = test system: OVCAR-3
DMS-273 = test system: DMS-273
HOP-18 = test system: HOP-18
OVCAR-8 = test system: OVCAR-8
SR = test system: SR

Structure (SMILES) | GI50 (OVCAR-5) | GI50 (Malme-3M) | GI50 (SN12C) | GI50 (T47D) | GI50 (SF-268) | GI50 (MDA-MB-231) | GI50 (RPMI-8226) | GI50 (EKVX) | GI50 (NCI-H23) | GI50 (NCI/ADR-RES) | GI50 (SNB-78) | GI50 (MOLT-4) | GI50 (RXF 393) | GI50 (MCF7) | GI50 (HT-29) | GI50 (OVCAR-3) | GI50 (DMS-273) | GI50 (HOP-18) | GI50 (OVCAR-8) | GI50 (SR)
COc1cc(C2c3cc4c(cc3[C@H](OCCN(C)C)[C@@H]3COC(=O)C23)OCO4)cc(OC)c1O (stereo partly specified) | 0.738 µM (active) | 0.275 µM (active) | 0.0624 µM (active) | 0.369 µM (active) | 0.194 µM (active) | 2.62 µM (inactive) | 0.938 µM (active) | 0.485 µM (active) | 0.155 µM (active) | 2.67 µM (inactive) | 3.83 µM (inactive) | < 0.0123 µM (active) | 0.299 µM (active) | 48.4 nM (active) | 0.621 µM (active) | 1.46 µM (inactive) | 0.0385 µM (active) | 0.27 µM (active) | 0.624 µM (active) | 0.218 µM (active)
O=c1cc(-c2ccccc2)oc2ccc(Cl)cc12 [6-CHLOROFLAVONE] | > 100 µM (inactive) | 56.9 µM (inactive) | > 69.8 µM (inactive) | 19.6 µM (inactive) | 31.8 µM (inactive) | 18.1 µM (inactive) | > 73.5 µM (inactive) | 17.4 µM (inactive) | 49.9 µM (inactive) | 57.4 µM (inactive) | 48.2 µM (inactive) | > 74.6 µM (inactive) | 31.4 µM (inactive) | 20700 nM (inactive) | > 100 µM (inactive) | > 100 µM (inactive) | 72.9 µM (inactive) | > 100 µM (inactive) | > 86.5 µM (inactive) | 20.7 µM (inactive)
O=C(O/N=C1/CCCC/C1=C\c1ccccc1)c1ccc(Cl)c(Cl)c1 | 69.2 µM (inactive) | 0.443 µM (active) | 49.8 µM (inactive) |  | 11.5 µM (inactive) |  | 36.2 µM (inactive) | 38.3 µM (inactive) | 19.2 µM (inactive) |  | 19.1 µM (inactive) | 13.3 µM (inactive) | 27.7 µM (inactive) |  | 22.4 µM (inactive) | 21 µM (inactive) | 23.9 µM (inactive) | > 100 µM (inactive) | 17.9 µM (inactive) | 8.2 µM (inactive)
CCc1ccc(NC(=O)NC(=O)c2ccccc2[N+](=O)[O-])cc1Oc1ncc(Cl)cn1 | < 0.0301 µM (active) | < 0.01 µM (active) | 0.0308 µM (active) |  | 0.0287 µM (active) | 0.0376 µM (active) | < 0.0159 µM (active) | 7.06 µM (inactive) | < 0.0174 µM (active) |  | 0.0279 µM (active) | 0.0247 µM (active) | < 0.01 µM (active) | < 10 nM (active) | 0.0179 µM (active) | 0.0147 µM (active) | < 0.0149 µM (active) | > 100 µM (inactive) | 0.0264 µM (active) | 0.0247 µM (active)
Nc1ccc(C(=O)NN2C(=O)C(Cl)C2c2cc(Br)cc(Br)c2O)cc1 (stereo unspecified) | 40.2 µM (inactive) | 17.3 µM (inactive) |  |  | 3.98 µM (inactive) |  | > 100 µM (inactive) | 4.62 µM (inactive) | 12.4 µM (inactive) |  | 63.8 µM (inactive) | 4.89 µM (inactive) | 13.3 µM (inactive) |  | 34.9 µM (inactive) | 2.43 µM (inactive) | 6.4 µM (inactive) | 3.56 µM (inactive) | 14.7 µM (inactive) | 24.3 µM (inactive)
O=C(O/N=C1/CCC/C1=C\c1ccccc1)c1ccc(Cl)c(Cl)c1 | > 100 µM (inactive) | > 100 µM (inactive) | > 100 µM (inactive) |  | > 100 µM (inactive) |  | > 100 µM (inactive) | > 100 µM (inactive) | > 100 µM (inactive) |  | > 100 µM (inactive) | > 100 µM (inactive) | > 100 µM (inactive) |  | > 100 µM (inactive) | > 100 µM (inactive) | > 100 µM (inactive) | > 100 µM (inactive) | > 100 µM (inactive) | > 100 µM (inactive)
COc1ccc(/C=C/C(=O)c2sc(-n3nc(-c4ccccc4)cc3-c3ccccc3)nc2C)cc1 | > 10 µM (inactive) | > 10 µM (inactive) | 75.9 µM (inactive) |  | > 10 µM (inactive) |  | 39.7 µM (inactive) | 6.25 µM (inactive) | > 10 µM (inactive) |  | > 10 µM (inactive) | 56.6 µM (inactive) | > 10 µM (inactive) |  | 30.5 µM (inactive) | 62.5 µM (inactive) | > 10 µM (inactive) | > 10 µM (inactive) | > 10 µM (inactive) | > 10 µM (inactive)
Cc1cc(Cl)ccc1NC(=O)CC/C(CC(=O)C(C)C)=N\NC(=O)C[n+]1ccccc1 | > 100 µM (inactive) | > 100 µM (inactive) | > 100 µM (inactive) |  | > 100 µM (inactive) |  | > 100 µM (inactive) | > 100 µM (inactive) | > 100 µM (inactive) |  | > 100 µM (inactive) | > 100 µM (inactive) | > 100 µM (inactive) |  | > 100 µM (inactive) | > 100 µM (inactive) | > 100 µM (inactive) | > 100 µM (inactive) | > 100 µM (inactive) | > 100 µM (inactive)
Cn1c(NC(=O)NC23CC4CC(CC(C4)C2)C3)nc2ccccc21 | > 100 µM (inactive) | 17.5 µM (inactive) | 68.5 µM (inactive) |  | 28.5 µM (inactive) |  | > 100 µM (inactive) | 83.8 µM (inactive) | > 100 µM (inactive) |  | 23.8 µM (inactive) | > 100 µM (inactive) | 15.7 µM (inactive) |  | > 100 µM (inactive) | > 100 µM (inactive) | 26.5 µM (inactive) | 19.2 µM (inactive) | > 100 µM (inactive) | > 100 µM (inactive)
C/C(CCn1[nH]c(=O)ccc1=O)=N\N=C(N)N | > 100 µM (inactive) | > 100 µM (inactive) | > 100 µM (inactive) |  | > 100 µM (inactive) |  | > 100 µM (inactive) | > 100 µM (inactive) | > 100 µM (inactive) |  | > 100 µM (inactive) | > 100 µM (inactive) | > 100 µM (inactive) |  | > 100 µM (inactive) | > 100 µM (inactive) | > 100 µM (inactive) | > 100 µM (inactive) | > 100 µM (inactive) | > 100 µM (inactive)
COc1cccc(/C=C2\N=C(Cl)OC2=O)c1O | > 100 µM (inactive) | > 100 µM (inactive) | > 100 µM (inactive) |  | > 80 µM (inactive) |  | > 73.5 µM (inactive) | > 100 µM (inactive) | > 100 µM (inactive) |  | > 100 µM (inactive) | > 100 µM (inactive) | > 100 µM (inactive) |  | > 100 µM (inactive) | > 100 µM (inactive) | > 100 µM (inactive) | > 100 µM (inactive) | > 100 µM (inactive) | > 88.9 µM (inactive)
O=[N+]([O-])c1ccc(C2=NN(c3ccccc3)C[N+](c3ccc(Br)cc3)=N2)cc1 | > 100 µM (inactive) | > 100 µM (inactive) | > 100 µM (inactive) |  | 60.5 µM (inactive) |  | > 100 µM (inactive) | > 100 µM (inactive) | 70.6 µM (inactive) |  | > 100 µM (inactive) | 44.3 µM (inactive) | 31.1 µM (inactive) |  | > 100 µM (inactive) |  | > 100 µM (inactive) | > 100 µM (inactive) | > 100 µM (inactive) | 96.8 µM (inactive)
O=C(c1ccccc1)C(C(=O)c1ccccc1)C1(O)C(=O)c2ccccc2C1=O | 60.3 µM (inactive) | 24.2 µM (inactive) | 27.8 µM (inactive) |  | 24.7 µM (inactive) |  | 31.1 µM (inactive) | 32.5 µM (inactive) | 28.6 µM (inactive) |  | 62.2 µM (inactive) | 19.8 µM (inactive) | 0.253 µM (active) |  | 39.7 µM (inactive) | 26.6 µM (inactive) | 20.6 µM (inactive) | 68.4 µM (inactive) | 25.6 µM (inactive) | 29.1 µM (inactive)
